Measured values reported in patent publication US11214594B2, “Antimicrobial peptide having synergistic antibacterial effect with antibiotics on multidrug resistant bacteria, and use thereof” (priority 2016, dated 2022).
Where a SMILES comes first, the peptide text is derived from it. [ ]: non-standard residue; d: D form.

Tests used:
A. baumannii [1] = assay: MIC of antibiotic during combined treatment with antimicrobial peptide; assay type: cell-based, Acinetobacter baumannii; conditions: A. baumannii
Method: Thereafter, the MIC value of each mixed solution was determined by diluting the antibiotic solution with the MH medium, adding 50 μl of the diluted solution to each well, and performing an experiment even under a reversed condition.

A. baumannii [2] = assay: MIC of antimicrobial peptide during combined treatment with antibiotic; assay type: cell-based, Acinetobacter baumannii
Method in brief: (§1)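 Strains in MH medium at 2×10^6 CFU/ml were mixed with peptide diluted stepwise (2:1) from its MIC, then antibiotic dilutions in MH medium were added to give the antibiotic MIC. The reversed set-up, peptide titrated against fixed antibiotic, gave the peptide MIC.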

MDRAB 12035 = assay: as above; assay type: cell-based, Acinetobacter baumannii
Method in brief: as §1

MDREC 1229 = assay: MIC of antibiotic during combined treatment with antimicrobial peptide; assay type: cell-based, Escherichia coli
Method: Specifically, the strains described in [Table 2] were prepared and diluted with an MH medium such that the number of bacteria was 2×10^6 colony-forming units (CFUs) per 1 ml, 100 μl of the diluted strains was each aliquoted into a 96-well microtiter plate, and then 50 μl of a peptide solution diluted with the MH medium from the MIC value (solution diluted stepwise at 2: 1) was added to each well. Thereafter, the MIC value of each mixed solution was determined by diluting the antibiotic solution with the MH medium, adding 50 μl of the diluted solution to each well, and performing an experiment even under a reversed condition.

[3] = combined with peptide at 8 μg/ml
[4] = combined with peptide at 16 μg/ml
[5] = combined with peptide at 32 μg/ml
[6] = combined with peptide at 64 μg/ml
[7] = erythromycin 4 μg/ml (Conc./MIC 1/8)
[8] = erythromycin 8 μg/ml (Conc./MIC 1/4)
[9] = erythromycin 16 μg/ml (Conc./MIC 1/2)
[10] = erythromycin 32 μg/ml (Conc./MIC 1)
[11] = vancomycin 512 μg/ml (Conc./MIC 1/2)
[12] = vancomycin 1024 μg/ml (Conc./MIC 1)
[13] = peptide treatment concentration 1 μg/ml
[14] = peptide treatment concentration 2 μg/ml
[15] = peptide treatment concentration 4 μg/ml
[16] = peptide treatment concentration 6 μg/ml
[17] = peptide treatment concentration 8 μg/ml
[18] = peptide treatment concentration 16 μg/ml
[19] = peptide treatment concentration 32 μg/ml
[20] = peptide treatment concentration 64 μg/ml

## CC[C@H](C)[C@H](NC(=O)[C@H](CCCCN)NC(=O)[C@H](Cc1c[nH]c2ccccc12)NC(=O)[C@@H](N)CCCNC(=N)N)C(=O)N[C@@H](Cc1ccccc1)C(=O)N[C@@H](CCCCN)C(=O)N[C@@H](CCCCN)C(=O)N[C@H](C(=O)N[C@H](CC(C)C)C(=O)N[C@@H](CCCCN)C(=O)N[C@@H](CC(C)C)C(=O)N[C@@H](CC(C)C)C(=O)N[C@@H](Cc1c[nH]cn1)C(=O)N[C@@H](CCCCN)C(=O)N[C@@H](C)C(=O)N[C@@H](CCCCN)C(=O)N[C@@H](CCCCN)C(=O)N[C@@H](Cc1c[nH]c2ccccc12)C(N)=O)[C@@H](C)CC [PapMA-22, RWK IFK KIl KLL HKA KKW-NH2] (H-RWKIFKKI[dL]KLLHKAKKW-NH2; N-terminus assumed)
A. baumannii [1]; [3]
  Antibiotic MIC, Linezolid: 8 µg/mL
  Antibiotic MIC, Vancomycin: 8 µg/mL
A. baumannii [1]; [4]
  Antibiotic MIC, Erythromycin: 0 µg/mL
  Antibiotic MIC, Linezolid: 0 µg/mL
  Antibiotic MIC, Vancomycin: 0 µg/mL
A. baumannii [1]; [5]
  Antibiotic MIC, Erythromycin: 0 µg/mL
  Antibiotic MIC, Linezolid: 0 µg/mL
  Antibiotic MIC, Vancomycin: 0 µg/mL
A. baumannii [1]; [6]
  Antibiotic MIC, Erythromycin: 0 µg/mL
  Antibiotic MIC, Linezolid: 0 µg/mL
  Antibiotic MIC, Vancomycin: 0 µg/mL
A. baumannii [2]; [7]
  Peptide MIC during treatment with erythromycin: 8 µg/mL
A. baumannii [2]; [8]
  Peptide MIC during treatment with erythromycin: 4 µg/mL
A. baumannii [2]; [9]
  Peptide MIC during treatment with erythromycin: 4 µg/mL
A. baumannii [2]; [10]
  Peptide MIC during treatment with erythromycin: 0 µg/mL
A. baumannii [2]; linezolid 32 μg/ml (Conc./MIC 1/8)
  Peptide MIC during treatment with linezolid: 4 µg/mL
A. baumannii [2]; linezolid 64 μg/ml (Conc./MIC 1/4)
  Peptide MIC during treatment with linezolid: 4 µg/mL
A. baumannii [2]; linezolid […] (Conc./MIC 1)
  Peptide MIC during treatment with linezolid: 0 µg/mL
A. baumannii [2]; linezolid […] (Conc./MIC 1/2)
  Peptide MIC during treatment with linezolid: 1 µg/mL
A. baumannii [2]; [11]
  Peptide MIC during treatment with vancomycin: 0.25 µg/mL
A. baumannii [2]; [12]
  Peptide MIC during treatment with vancomycin: 0 µg/mL
A. baumannii [2]; vancomycin […] (Conc./MIC 1/4)
  Peptide MIC during treatment with vancomycin: 0.5 µg/mL
A. baumannii [2]; vancomycin […] (Conc./MIC 1/8)
  Peptide MIC during treatment with vancomycin: 2 µg/mL
MDRAB 12035; [7]
  Peptide MIC during treatment with erythromycin: 8 µg/mL
MDRAB 12035; [8]
  Peptide MIC during treatment with erythromycin: 8 µg/mL
MDRAB 12035; [9]
  Peptide MIC during treatment with erythromycin: 4 µg/mL
MDRAB 12035; [10]
  Peptide MIC during treatment with erythromycin: 0 µg/mL
MDRAB 12035; linezolid 64 μg/ml (Conc./MIC 1/8)
  Peptide MIC during treatment with linezolid: 4 µg/mL
MDRAB 12035; linezolid 512 μg/ml (Conc./MIC 1)
  Peptide MIC during treatment with linezolid: 0 µg/mL
MDRAB 12035; linezolid […] (Conc./MIC 1/2)
  Peptide MIC during treatment with linezolid: 1 µg/mL
MDRAB 12035; linezolid […] (Conc./MIC 1/4)
  Peptide MIC during treatment with linezolid: 4 µg/mL
MDRAB 12035; [11]
  Peptide MIC during treatment with vancomycin: 4 µg/mL
MDRAB 12035; [12]
  Peptide MIC during treatment with vancomycin: 1 µg/mL
MDRAB 12035; vancomycin […] (Conc./MIC 1/4)
  Peptide MIC during treatment with vancomycin: 4 µg/mL
MDRAB 12035; vancomycin […] (Conc./MIC 1/8)
  Peptide MIC during treatment with vancomycin: 4 µg/mL
MDREC 1229; [13]
  Antibiotic MIC, Erythromycin: 128 µg/mL
  Antibiotic MIC, Linezolid: >128 µg/mL
  Antibiotic MIC, Vancomycin: >128 µg/mL
MDREC 1229; [14]
  Antibiotic MIC, Erythromycin: 32 µg/mL
  Antibiotic MIC, Linezolid: >128 µg/mL
  Antibiotic MIC, Vancomycin: >128 µg/mL
MDREC 1229; [15]
  Antibiotic MIC, Erythromycin: 32 µg/mL
  Antibiotic MIC, Linezolid: 128 µg/mL
  Antibiotic MIC, Vancomycin: >128 µg/mL
MDREC 1229; [16]
  Antibiotic MIC, Erythromycin: 16 µg/mL
  Antibiotic MIC, Linezolid: 64 µg/mL
  Antibiotic MIC, Vancomycin: >128 µg/mL
MDREC 1229; [17]
  Antibiotic MIC, Erythromycin: 4 µg/mL
  Antibiotic MIC, Linezolid: 32 µg/mL
  Antibiotic MIC, Vancomycin: 64 µg/mL
MDREC 1229; [18]
  Antibiotic MIC, Erythromycin: 2 µg/mL
  Antibiotic MIC, Linezolid: 16 µg/mL
  Antibiotic MIC, Vancomycin: 32 µg/mL
MDREC 1229; [19]
  Antibiotic MIC, Erythromycin: 0 µg/mL
  Antibiotic MIC, Linezolid: 0 µg/mL
  Antibiotic MIC, Vancomycin: 0 µg/mL
MDREC 1229; [20]
  Antibiotic MIC, Erythromycin: 0 µg/mL
  Antibiotic MIC, Linezolid: 0 µg/mL
  Antibiotic MIC, Vancomycin: 0 µg/mL
